Data as given in patent US9862716B2, “TRKA kinase inhibitors, compositions and methods thereof” (Merck Sharp & Dohme Corp., priority 2014, dated 2018).

These compounds were tested against T1, human TrkA receptor (Homo sapiens, UniProt P04629) (assay: DiscoverX PathHunter TrkA functional assay (NGF-stimulated U2OS cells)). Conditions: U2OS cells expressing human TrkA-PK, Shc1-EA and p75NTR; compound 1 h, then NGF at ~80% of maximal response for 3 h; luminescence.
T1 construct: host or cells: U2OS cells (PathHunter cell line)
T1 sequence (P04629 33-796): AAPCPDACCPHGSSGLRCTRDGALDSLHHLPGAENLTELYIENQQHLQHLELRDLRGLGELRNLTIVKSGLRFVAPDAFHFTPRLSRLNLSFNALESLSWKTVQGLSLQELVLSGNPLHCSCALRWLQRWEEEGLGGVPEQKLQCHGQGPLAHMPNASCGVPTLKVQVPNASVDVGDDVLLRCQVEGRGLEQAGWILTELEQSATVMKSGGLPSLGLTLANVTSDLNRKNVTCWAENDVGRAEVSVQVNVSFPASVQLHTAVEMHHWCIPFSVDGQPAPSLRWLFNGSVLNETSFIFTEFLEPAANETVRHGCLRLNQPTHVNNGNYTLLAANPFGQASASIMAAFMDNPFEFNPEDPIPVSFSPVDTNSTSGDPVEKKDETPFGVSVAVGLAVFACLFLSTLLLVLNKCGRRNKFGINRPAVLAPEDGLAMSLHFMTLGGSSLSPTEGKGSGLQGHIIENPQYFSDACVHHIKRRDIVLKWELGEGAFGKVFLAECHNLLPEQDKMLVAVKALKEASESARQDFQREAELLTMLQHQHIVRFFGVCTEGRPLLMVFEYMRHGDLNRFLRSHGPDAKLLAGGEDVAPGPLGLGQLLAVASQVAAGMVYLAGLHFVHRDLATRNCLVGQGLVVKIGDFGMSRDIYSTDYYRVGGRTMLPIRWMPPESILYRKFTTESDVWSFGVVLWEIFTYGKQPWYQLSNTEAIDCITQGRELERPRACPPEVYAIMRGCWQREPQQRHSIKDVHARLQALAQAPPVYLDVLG
Format: cell-based
`CC(O)c1ccn2nc(-c3ccccc3)c(NC(=O)c3cc(-c4ccn(C)n4)c(C(F)(F)F)cc3F)c2c1` (single isomer, unassigned) [Compound 107, (R or S)-2-fluoro-N-[5-(1-hydroxyethyl)-2-phenylpyrazolo[1,5-a]pyridin-3-yl]-5-(1-methyl-1H-pyrazol-3-yl)-4-(trifluoromethyl) benzamide] showed an IC50 of 0.85 nM.
Compound `CC(O)c1ccc2[nH]c(-c3ccccc3)c(NC(=O)c3cc(-c4ccn(C)n4)c(C(F)(F)F)cc3F)c2c1` (single isomer, unassigned) [Compound 112, (R or S)-2-fluoro-N-[5-(1-hydroxyethyl)-2-phenyl-1H-indol-3-yl]-5-(1-methyl-1H-pyrazol-3-yl)-4-(trifluoromethyl) benzamide] has an IC50 of 1.4 nM.
With `CC(O)c1ccc2[nH]c(-c3ccccc3)c(NC(=O)c3cc(-c4ccn(C)n4)c(C(F)(F)F)cc3F)c2c1` (single isomer, unassigned) [Compound 113, (R or S)-2-fluoro-N-[5-(1-hydroxyethyl)-2-phenyl-1H-indol-3-yl]-5-(1-methyl-1H-pyrazol-3-yl)-4-(trifluoromethyl) benzamide] the IC50 was 1.7 nM.
Compound `Cn1ccc(-c2cc(C(=O)Nc3c(-c4ccccc4)nc4cc(C5CCCN5)ccn34)ccc2C(F)(F)F)n1` (single isomer, unassigned) [Compound 114, (R or S)-3-(1-methyl-1H-pyrazol-3-yl)-N-(2-phenyl-7-pyrrolidin-2-ylimidazo[1,2-a]pyridin-3-yl)-4-(trifluoromethyl) benzamide] has an IC50 of 15 nM.
Work on `O=C(Nc1c(-c2ccccc2)nc2ccccn12)c1ccc(OC(F)(F)F)cc1` [Compound 1, N-(2-phenylimidazo[1,2-a]pyridin-3-yl)-4-(trifluoromethoxy) benzamide] yielded an IC50 of 550 nM.
In the case of `O=C(Nc1c(-c2ccccc2)nc2sccn12)c1ccc(C(F)(F)F)cc1F` [Compound 2, 2-fluoro-N-(6-phenylimidazo[2,1-b][1,3]thiazol-5-yl)-4-(trifluoromethyl) benzamide], the IC50 is reported as 139 nM.
For `Cn1ccc(-c2cc(C(=O)Nc3c(-c4ccccc4)nc4ncccn34)ccc2C(F)(F)F)n1` [Compound 3, 3-(1-methyl-1H-pyrazol-3-yl)-N-(2-phenylimidazo[1,2-a]pyrimidin-3-yl)-4-(trifluoromethyl) benzamide], the IC50 was 5.9 nM.
Compound `Cn1ccc(-c2cc(C(=O)Nc3c(-c4ccccc4)nc4ccccn34)ccc2C(F)(F)F)n1` [Compound 4, 3-(1-methyl-1H-pyrazol-3-yl)-N-(2-phenylimidazo[1,2-a]pyridin-3-yl)-4-(trifluoromethyl) benzamide] has an IC50 of 1.4 nM.
In the case of `Cn1ccc(-c2cc(C(=O)Nc3c(-c4ccccn4)nc4ccccn34)ccc2C(F)(F)F)n1` [Compound 5, 3-(1-methyl-1H-pyrazol-3-yl)-N-(2-pyridin-2-ylimidazo[1,2-a]pyridin-3-yl)-4-(trifluoromethyl) benzamide], the IC50 is reported as 12 nM.
`Cn1ccc(-c2cc(C(=O)Nc3c(-c4ccccc4)nc4cccnn34)ccc2C(F)(F)F)n1` [Compound 6, 3-(1-methyl-1H-pyrazol-3-yl)-N-(2-phenylimidazo[1,2-b]pyridazin-3-yl)-4-(trifluoromethyl) benzamide] gave an IC50 of 3.9 nM.
With `CC(C)c1cccc2nc(-c3ccccc3)c(NC(=O)c3ccc(C(F)(F)F)cc3F)n12` [Compound 7, 2-fluoro-N-[5-(1-methylethyl)-2-phenylimidazo[1,2-a]pyridin-3-yl]-4-(trifluoromethyl) benzamide] the IC50 was 264 nM.
Work on `Cn1ccc(-c2cc(C(=O)Nc3c(-c4ccncn4)nc4ccccn34)ccc2C(F)(F)F)n1` [Compound 8, 3-(1-methyl-1H-pyrazol-3-yl)-N-(2-pyrimidin-4-ylimidazo[1,2-a]pyridin-3-yl)-4-(trifluoromethyl) benzamide] yielded an IC50 of 568 nM.
Compound `O=C(Nc1c(-c2ccccc2)nc2ccccn12)c1ccc(C(F)(F)F)c(-c2cc[nH]n2)c1` [Compound 9, N-(2-phenylimidazo[1,2-a]pyridin-3-yl)-3-(1H-pyrazol-3-yl)-4-(trifluoromethyl) benzamide] has an IC50 of 8.8 nM.
For `O=C(Nc1c(-c2ccno2)nc2ccccn12)c1ccc(C(F)(F)F)cc1F` [Compound 10, 2-fluoro-N-(2-isoxazol-5-ylimidazo[1,2-a]pyridin-3-yl)-4-(trifluoromethyl) benzamide], the IC50 was 1920 nM.
In the case of `O=C(Nc1c(-c2ccccc2)nc2ccccn12)c1ccc(C(F)(F)F)c(-c2ccn(C(F)F)n2)c1` [Compound 11, 3-[1-(difluoromethyl)-1H-pyrazol-3-yl]-N-(2-phenylimidazo[1,2-a]pyridin-3-yl)-4-(trifluoromethyl) benzamide], the IC50 is reported as 3.2 nM.
`Cn1ccc(-c2cc(C(=O)Nc3c(-c4ccccc4)nc4sccn34)ccc2C(F)(F)F)n1` [Compound 12, 3-(1-methyl-1H-pyrazol-3-yl)-N-(6-phenylimidazo[2,1-b][1,3]thiazol-5-yl)-4-(trifluoromethyl) benzamide] showed an IC50 of 1.9 nM.
`Cc1cnn(-c2nc3ccccn3c2NC(=O)c2ccc(C(F)(F)F)c(-c3ccn(C)n3)c2)c1` [Compound 13, 3-(1-methyl-1H-pyrazol-3-yl)-N-[2-(4-methyl-1H-pyrazol-1-yl)imidazo[1,2-a]pyridin-3-yl]-4-(trifluoromethyl) benzamide] showed an IC50 of 17 nM.
In the case of `Cc1coc(-c2cc(C(=O)Nc3c(-c4ccccc4)nc4ccccn34)ccc2C(F)(F)F)n1` [Compound 14, 3-(4-methyl-1,3-oxazol-2-yl)-N-(2-phenylimidazo[1,2-a]pyridin-3-yl)-4-(trifluoromethyl) benzamide], the IC50 is reported as 3.3 nM.
`Cc1ccc(C(=O)Nc2c(-c3ccccc3)nc3ccccn23)cc1-c1ccn(C)n1` [Compound 15, 4-methyl-3-(1-methyl-1H-pyrazol-3-yl)-N-(2-phenylimidazo[1,2-a]pyridin-3-yl)benzamide] was tested, and the IC50 was 26 nM.
With `Cc1nc(-c2nc3ccccn3c2NC(=O)c2ccc(C(F)(F)F)c(-c3ccn(C)n3)c2)co1` [Compound 16, N-[2-(2-methyl-1,3-oxazol-4-yl)imidazo[1,2-a]pyridin-3-yl]-3-(1-methyl-1H-pyrazol-3-yl)-4-(trifluoromethyl) benzamide] the IC50 was 556 nM.
For `Cn1ccc(-c2cc(C(=O)Nc3c(-c4ccccc4)nc4scnn34)ccc2C(F)(F)F)n1` [Compound 17, 3-(1-methyl-1H-pyrazol-3-yl)-N-(6-phenylimidazo[2,1-b][1,3,4]thiadiazol-5-yl)-4-(trifluoromethyl) benzamide], the IC50 was 9.2 nM.
With `O=C(Nc1c(-c2ccccc2)nc2c(F)cccn12)c1ccc(C(F)(F)F)c(-c2cc[nH]n2)c1` [Compound 18, N-(8-fluoro-2-phenylimidazo[1,2-a]pyridin-3-yl)-3-(1H-pyrazol-3-yl)-4-(trifluoromethyl) benzamide] the IC50 was 11 nM.
Compound `Cc1nc(-c2nc3ccccn3c2NC(=O)c2ccc(C(F)(F)F)c(-c3ccn(C)n3)c2)cs1` [Compound 19, 3-(1-methyl-1H-pyrazol-3-yl)-N-[2-(2-methyl-1,3-thiazol-4-yl)imidazo[1,2-a]pyridin-3-yl]-4-(trifluoromethyl) benzamide] has an IC50 of 14 nM.
`Cn1ccc(-c2cc(C(=O)Nc3c(-c4ccccc4)nc4ccccn34)c(Cl)cc2C(F)(F)F)n1` [Compound 20, 2-chloro-5-(1-methyl-1H-pyrazol-3-yl)-N-(2-phenylimidazo[1,2-a]pyridin-3-yl)-4-(trifluoromethyl) benzamide] gave an IC50 of 0.73 nM.
